Read-outs that look alike come from different tables or passages of the source. Starred links: 1 amine or outer side, 2 acyl side, 3 side chain; linkers in the order of their positions; H or OH if unused. Non-standard residues stand in square brackets, D forms with d. Residues, ends and D or L forms follow the SMILES beside them. Groups on a side chain read outwards from the residue. *: point of attachment. X1 = CC(C)(CCNC(=N)N)[C@H](N[*:1])C(=O)[*:2]; C20 diacid = O=C(O)CCCCCCCCCCCCCCCCCCC(=O)*; C18 diacid = O=C(O)CCCCCCCCCCCCCCCCC(=O)*; γGlu = O=C(O)[C@H](CCC(=O)[*:2])N[*:1]; Palmitoyl = CCCCCCCCCCCCCCCC(=O)*; αMeF = C[C@](N)(Cc1ccccc1)C(=O)O; PEG2 = NCCOCCOCCC(=O)O; AEEA = NCCOCCOCC(=O)O; Aib = CC(C)(N)C(=O)O
Assays:
[1] = target: human glucagon receptor (hGCGR) (Homo sapiens, UniProt P47871); assay: cAMP production (HTRF) in CHO cells expressing hGCGR; assay type: cell-based; set-up: expressed in transfected cells; details: geometric mean, read-out: hGluc-R EC50
Chain of human glucagon receptor (hGCGR) (P47871 26-477): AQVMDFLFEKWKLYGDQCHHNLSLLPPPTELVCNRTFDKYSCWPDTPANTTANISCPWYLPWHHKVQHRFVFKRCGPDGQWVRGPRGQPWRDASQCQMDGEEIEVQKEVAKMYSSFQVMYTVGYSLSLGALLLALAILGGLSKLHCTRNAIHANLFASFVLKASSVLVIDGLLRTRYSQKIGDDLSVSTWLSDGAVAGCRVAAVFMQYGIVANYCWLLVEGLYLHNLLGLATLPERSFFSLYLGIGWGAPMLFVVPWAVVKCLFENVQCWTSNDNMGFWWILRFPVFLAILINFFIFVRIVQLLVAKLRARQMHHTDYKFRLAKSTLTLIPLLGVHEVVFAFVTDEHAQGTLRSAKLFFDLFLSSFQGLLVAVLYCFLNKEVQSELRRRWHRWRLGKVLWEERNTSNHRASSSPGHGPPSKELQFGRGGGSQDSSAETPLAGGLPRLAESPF
In short: (§1)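 Read-out: HTRF cAMP (anti-cAMP cryptate donor, cAMP-d2 acceptor in conjugate/lysis buffer), converted to % Delta F and fitted by 4-parameter logistic for EC50. Cell densities were 1×10^5 cells/mL (hGLP-1R) or 2×10^5 cells/mL (hGCGR). Stimulation lasted 30 min at room temperature.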

[2] = target: human GLP-1 receptor (hGLP-1R) (Homo sapiens, UniProt P43220); assay: cAMP production (HTRF) in CHO cells expressing hGLP-1R; assay type: cell-based; set-up: expressed in transfected cells; details: for % Relative Potency Ratio: % GLP-1R activity relative to GLP-1 / % GlucR activity relative to glucagon; for EC50: geometric mean, read-out: hGLP-1R EC50
Chain of human GLP-1 receptor (hGLP-1R) (P43220 24-463): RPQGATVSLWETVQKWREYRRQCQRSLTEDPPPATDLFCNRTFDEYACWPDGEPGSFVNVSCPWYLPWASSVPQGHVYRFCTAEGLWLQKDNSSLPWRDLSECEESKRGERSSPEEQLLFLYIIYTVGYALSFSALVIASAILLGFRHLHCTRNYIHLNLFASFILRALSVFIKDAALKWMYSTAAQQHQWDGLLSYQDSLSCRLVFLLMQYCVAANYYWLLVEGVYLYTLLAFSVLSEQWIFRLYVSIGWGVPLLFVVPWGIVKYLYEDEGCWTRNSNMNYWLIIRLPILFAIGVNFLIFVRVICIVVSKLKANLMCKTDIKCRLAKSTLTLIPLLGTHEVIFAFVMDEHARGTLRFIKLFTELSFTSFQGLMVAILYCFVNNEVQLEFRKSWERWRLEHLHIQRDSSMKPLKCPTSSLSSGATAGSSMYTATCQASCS
In short: as §1

[3] = Table 6, peptides modified at position 17, cAMP in CHO hGCGR cells
[4] = Table 6, peptides modified at position 17, cAMP in CHO hGLP-1R cells

EC50 ([1]; cAMP, CHO cells, 0.1% BSA) [nM] | % Relative Potency Ratio [2] | EC50 ([2]; cAMP, CHO cells, 0.1% BSA) [nM] | EC50 [1, 3] [nM] | EC50 [2, 4] [nM] | % Relative Potency Ratio ([2]; Table 6) | SMILES
0.232 | 2.3 | 0.197 | – | – | – | CC[C@H](C)[C@H](NC(=O)C(C)(C)NC(=O)[C@H](CCCCNC(=O)COCCOCCNC(=O)COCCOCCNC(=O)CC[C@H](NC(=O)CCCCCCCCCCCCCCCCC(=O)O)C(=O)O)NC(=O)[C@@H](NC(=O)[C@](C)(Cc1ccccc1)NC(=O)[C@H](CC(=O)O)NC(=O)[C@H](CCC(N)=O)NC(=O)[C@H](C)NC(=O)[C@H](C)NC(=O)[C@H](CCC(N)=O)NC(=O)[C@H](CO)NC(=O)[C@H](CC(=O)O)NC(=O)[C@H](CC(C)C)NC(=O)[C@](C)(Cc1ccccc1)NC(=O)[C@H](CCCCN)NC(=O)[C@H](CO)NC(=O)[C@@H](NC(=O)[C@H](CC(=O)O)NC(=O)[C@H](CO)NC(=O)[C@@H](NC(=O)[C@](C)(Cc1ccccc1)NC(=O)[C@H](CO)NC(=O)CNC(=O)[C@H](Cc1c[nH]cn1)NC(=O)C(C)(C)NC(=O)[C@@H](N)Cc1c[nH]cn1)[C@@H](C)O)C(C)C)C(C)C)C(=O)N[C@@H](C)C(=O)N[C@@H](CC(N)=O)C(=O)N[C@H](C(N)=O)[C@@H](C)O [Peptide 383] (H-H[Aib]HGS[αMeF]TSDVSK[αMeF]LDSQAAQD[αMeF]VK([AEEA-AEEA-γGlu-C18 diacid])[Aib]IANT-NH2; N-terminus assumed)
1.24 | 3.1 | 0.797 | – | – | – | CC[C@H](C)[C@H](NC(=O)C(C)(C)NC(=O)[C@H](CCCCNC(=O)COCCOCCNC(=O)COCCOCCNC(=O)CC[C@H](NC(=O)CC[C@H](NC(=O)CCCCCCCCCCCCCCCCCCC(=O)O)C(=O)O)C(=O)O)NC(=O)[C@@H](NC(=O)[C@](C)(Cc1ccccc1)NC(=O)[C@H](CC(=O)O)NC(=O)[C@H](CCC(N)=O)NC(=O)[C@H](C)NC(=O)[C@H](C)NC(=O)[C@H](CCC(N)=O)NC(=O)[C@H](CO)NC(=O)[C@H](CC(=O)O)NC(=O)[C@H](CC(C)C)NC(=O)[C@](C)(Cc1ccccc1)NC(=O)[C@H](CCCCN)NC(=O)[C@H](CO)NC(=O)[C@@H](NC(=O)[C@H](CC(=O)O)NC(=O)[C@H](CO)NC(=O)[C@@H](NC(=O)[C@](C)(Cc1ccccc1)NC(=O)[C@H](CO)NC(=O)CNC(=O)[C@H](Cc1c[nH]cn1)NC(=O)C(C)(C)NC(=O)[C@@H](N)Cc1c[nH]cn1)[C@@H](C)O)C(C)C)C(C)C)C(=O)N[C@@H](C)C(=O)N[C@@H](CC(N)=O)C(=O)N[C@H](C(N)=O)[C@@H](C)O [Peptide 384] (H-H[Aib]HGS[αMeF]TSDVSK[αMeF]LDSQAAQD[αMeF]VK([AEEA-AEEA-γGlu-γGlu-C20 diacid])[Aib]IANT-NH2; N-terminus assumed)
0.0107 | 16.7 | 0.00127 | – | – | – | CCCCCCCCCCCCCCCC(=O)N[C@@H](CCC(=O)N[C@@H](CCC(=O)NCCOCCOCCC(=O)NCCOCCOCCC(=O)NCCCC[C@H](NC(=O)[C@H](CCCCN)NC(=O)[C@H](CO)NC(=O)[C@@H](NC(=O)[C@H](CC(=O)O)NC(=O)[C@H](CO)NC(=O)[C@@H](NC(=O)[C@](C)(Cc1ccccc1)NC(=O)[C@H](CO)NC(=O)CNC(=O)[C@H](CCC(N)=O)NC(=O)[C@H](CO)NC(=O)[C@@H](N)Cc1c[nH]cn1)[C@@H](C)O)C(C)C)C(=O)N[C@@H](CC(C)C)C(=O)N[C@@H](CC(=O)O)C(=O)N[C@@H](CO)C(=O)N[C@H](C(=O)N[C@@H](C)C(=O)N[C@@H](C)C(=O)N[C@@H](CCC(N)=O)C(=O)N[C@@H](CC(=O)O)C(=O)N[C@@](C)(Cc1ccccc1)C(=O)N[C@H](C(=O)N[C@@H](CCC(=O)O)C(=O)NC(C)(C)C(=O)N[C@@H](CC(C)C)C(=O)N[C@@H](C)C(=O)N[C@@H](CC(N)=O)C(=O)N[C@H](C(N)=O)[C@@H](C)O)C(C)C)C(C)(C)CCNC(=N)N)C(=O)O)C(=O)O [Peptide 400, HSQGS(αMePhe)TSDVSKK((PEG)2-(PEG)2-γE-γE-Palmitoyl)13LDS(β-dimethylArg)AAQD(αMePhe)VE(Aib)LANT-amide] (H-HSQGS[αMeF]TSDVSKK([PEG2-PEG2-γGlu-γGlu-Palmitoyl])LDS[X1]AAQD[αMeF]VE[Aib]LANT-NH2; N-terminus assumed)
7.31 | 31.6 | 0.458 | – | – | – | CC[C@H](C)[C@H](NC(=O)C(C)(C)NC(=O)[C@H](CCC(N)=O)NC(=O)[C@@H](NC(=O)[C@](C)(Cc1ccccc1)NC(=O)[C@H](CC(=O)O)NC(=O)[C@H](CCC(N)=O)NC(=O)[C@H](C)NC(=O)[C@H](C)NC(=O)[C@H](CCCNC(=N)N)NC(=O)[C@H](CO)NC(=O)[C@H](CC(=O)O)NC(=O)[C@H](CC(C)C)NC(=O)[C@H](CCCCNC(=O)COCCOCCNC(=O)COCCOCCNC(=O)CC[C@H](NC(=O)CCCCCCCCCCCCCCCCC(=O)O)C(=O)O)NC(=O)[C@H](CCCCN)NC(=O)[C@H](CO)NC(=O)[C@@H](NC(=O)[C@H](CC(=O)O)NC(=O)[C@H](CO)NC(=O)[C@@H](NC(=O)[C@](C)(Cc1ccccc1)NC(=O)[C@H](CO)NC(=O)CNC(=O)[C@H](Cc1c[nH]cn1)NC(=O)C(C)(C)NC(=O)[C@@H](N)Cc1c[nH]cn1)[C@@H](C)O)C(C)C)C(C)C)C(=O)N[C@@H](C)C(=O)N[C@@H](CC(N)=O)C(=O)N[C@H](C(N)=O)[C@@H](C)O [Peptide 406] (H-H[Aib]HGS[αMeF]TSDVSKK([AEEA-AEEA-γGlu-C18 diacid])LDSRAAQD[αMeF]VQ[Aib]IANT-NH2; N-terminus assumed)
– | – | – | 0.828 | 0.37 | 4.4 | CC(C)C[C@H](NC(=O)[C@H](Cc1c[nH]c2ccccc12)NC(=O)[C@H](CCCNC(=N)N)NC(=O)[C@@H](NC(=O)[C@H](Cc1ccccc1)NC(=O)[C@H](CC(=O)O)NC(=O)[C@H](CCC(N)=O)NC(=O)[C@H](C)NC(=O)[C@H](CCCNC(=N)N)NC(=O)[C@H](CCCCNC(=O)COCCOCCNC(=O)COCCOCCNC(=O)CC[C@H](NC(=O)CC[C@H](NC(=O)CCCCCCCCCCCCCCCCCCC(=O)O)C(=O)O)C(=O)O)NC(=O)[C@@H](NC(=O)[C@H](CC(=O)O)NC(=O)[C@H](CC(C)C)NC(=O)[C@](C)(Cc1ccccc1)NC(=O)[C@H](CCCCN)NC(=O)[C@H](CO)NC(=O)[C@@H](NC(=O)[C@H](CC(=O)O)NC(=O)[C@H](CO)NC(=O)[C@@H](NC(=O)[C@H](Cc1ccccc1)NC(=O)[C@@H](NC(=O)CNC(=O)[C@H](CCC(N)=O)NC(=O)C(C)(C)NC(=O)[C@@H](N)Cc1c[nH]cn1)[C@@H](C)O)[C@@H](C)O)C(C)C)[C@@H](C)O)C(C)C)C(=O)N[C@@H](CCC(=O)O)C(=O)N[C@@H](C)C(=O)NC(C)(C)C(=O)NCC(=O)O [Peptide 408] (H-H[Aib]QGTFTSDVSK[αMeF]LDTK([AEEA-AEEA-γGlu-γGlu-C20 diacid])RAQDFVRWLEA[Aib]G-OH; N-terminus assumed)
– | – | – | 0.203 | 0.0227 | 17.7 | CC(C)C[C@H](NC(=O)[C@H](Cc1c[nH]c2ccccc12)NC(=O)[C@H](C)NC(=O)[C@@H](NC(=O)[C@H](Cc1ccccc1)NC(=O)[C@H](CC(=O)O)NC(=O)[C@H](CCCNC(=N)N)NC(=O)[C@H](C)NC(=O)[C@H](CCCNC(=N)N)NC(=O)[C@H](CCCCNC(=O)COCCOCCNC(=O)COCCOCCNC(=O)CC[C@H](NC(=O)CCCCCCCCCCCCCCCCC(=O)O)C(=O)O)NC(=O)[C@@H](NC(=O)[C@H](CC(=O)O)NC(=O)[C@H](CC(C)C)NC(=O)[C@](C)(Cc1ccccc1)NC(=O)[C@H](CCCCN)NC(=O)[C@H](CO)NC(=O)[C@@H](NC(=O)[C@H](CC(=O)O)NC(=O)[C@H](CO)NC(=O)[C@@H](NC(=O)[C@H](Cc1ccccc1)NC(=O)[C@@H](NC(=O)CNC(=O)[C@H](CCC(N)=O)NC(=O)C(C)(C)NC(=O)[C@@H](N)Cc1c[nH]cn1)[C@@H](C)O)[C@@H](C)O)C(C)C)[C@@H](C)O)C(C)C)C(=O)N[C@@H](CC(C)C)C(=O)NC(C)(C)C(=O)N[C@H](C(=O)N[C@@H](CCC(=O)O)C(=O)O)[C@@H](C)O [Peptide 409] (H-H[Aib]QGTFTSDVSK[αMeF]LDTK([AEEA-AEEA-γGlu-C18 diacid])RARDFVAWLL[Aib]TE-OH; N-terminus assumed)
– | – | – | 0.455 | 0.078 | 11.5 | CC(C)C[C@H](NC(=O)[C@H](Cc1c[nH]c2ccccc12)NC(=O)[C@H](C)NC(=O)[C@@H](NC(=O)[C@H](Cc1ccccc1)NC(=O)[C@H](CC(=O)O)NC(=O)[C@H](CCCNC(=N)N)NC(=O)[C@H](C)NC(=O)[C@H](CCCNC(=N)N)NC(=O)[C@H](CCCCNC(=O)COCCOCCNC(=O)COCCOCCNC(=O)CC[C@H](NC(=O)CCCCCCCCCCCCCCCCCCC(=O)O)C(=O)O)NC(=O)[C@@H](NC(=O)[C@H](CC(=O)O)NC(=O)[C@H](CC(C)C)NC(=O)[C@](C)(Cc1ccccc1)NC(=O)[C@H](CCCCN)NC(=O)[C@H](CO)NC(=O)[C@@H](NC(=O)[C@H](CC(=O)O)NC(=O)[C@H](CO)NC(=O)[C@@H](NC(=O)[C@H](Cc1ccccc1)NC(=O)[C@@H](NC(=O)CNC(=O)[C@H](CCC(N)=O)NC(=O)C(C)(C)NC(=O)[C@@H](N)Cc1c[nH]cn1)[C@@H](C)O)[C@@H](C)O)C(C)C)[C@@H](C)O)C(C)C)C(=O)N[C@@H](CC(C)C)C(=O)NC(C)(C)C(=O)N[C@H](C(=O)N[C@@H](CCC(=O)O)C(=O)O)[C@@H](C)O [Peptide 410] (H-H[Aib]QGTFTSDVSK[αMeF]LDTK([AEEA-AEEA-γGlu-C20 diacid])RARDFVAWLL[Aib]TE-OH; N-terminus assumed)

Source: US20250353891A1 (MEDIMMUNE LIMITED, priority 2022, published 2025)
